From publication PMC6149774, “Inhibition by Commercial Aminoglycosides of Human Connexin Hemichannels Expressed in Bacteria” (Molecules : A Journal of Synthetic Chemistry and Natural …, 2017)
Blank lines part the entries; values can stand above or below the compound they belong to.

Assays:
human Cx26 hemichannels = molecular target: T1, human Cx26 hemichannels (Homo sapiens, UniProt P29033); test: Cx26-dependent growth complementation assay in LB2003 cells; format: cell-based; conditions: for Reduction of Cx26-dependent growth complementation: 100 μM aminoglycoside
T1 construct: Details of the human Cx26, Cx43, and Cx46 DNAs used to transform LB2003 cells have been published; expressed in transfected cells; host or cells: E. coli LB2003 (with pREP4), IPTG-induced from pQE60
Experimental: (§1) We then tested all AGs in Figure 4 for inhibition of connexin-dependent growth in AG-resistant LB2003 cells transformed with the pREP4 plasmid.
(§2) Basically, freshly prepared competent LB2003 containing the pREP4 plasmid were transformed with pQE60 (empty plasmid; negative control), pQE-Cx26 (human Cx26 DNA into pQE60), pQE-Cx43 (human Cx43 into pQE60) or pQE-Cx46 (human Cx46 into pQE60). After growing overnight in Luria-Bertani (LB) medium (BD, Franklin Lakes, NJ, USA) supplemented with 100 mM KCl (to allow growth) and 0.4 mg/mL ampicillin, the cells were washed four times with NLM, to remove residual potassium from the LB medium, and were resuspended in complementation growth medium to an OD600 of 0.2. NLM contained 46 mM Na2HPO4, 23 mM NaH2PO4, 8 mM (NH4)2SO4, 0.4 mM MgSO4, 0.012 mM FeSO4, 1 mM sodium citrate, 44 mM glucose, and 0.006 mM thiamine hydrochloride, pH 7.0. KLM was identical to NLM except for the equimolar replacement of Na^+ with K^+. For growth-complementation by Cx26, Cx43, and Cx46 in low-[K^+] medium we used NLM + 4 mM KCl, NLM + 8 mM KCl, and NLM + 16 mM KCl, respectively. Expression of Cx26 was induced with 0.5 mM IPTG (GoldBio, St. Louis, MO, USA) at the time of dilution to OD600 = 0.2. For growth-complementation by Cx43 and Cx46, we used 10 µM IPTG. Transformed cells in the appropriate growth medium were seeded in 24- or 96-well plates, and the plates were incubated at 30 °C, with shaking at 250 and 500 rpm, respectively. OD600 was measured after 18 h manually for the 24-well plates or in a plate reader for the 96-well plates (Falcon 353072, Corning Inc., Corning, NY, USA). The initial OD600 = 0.2 was subtracted for growth calculations.

human Cx46 hemichannels = molecular target: T2, human Cx46 hemichannels (Homo sapiens, UniProt Q9Y6H8); test: Cx46-dependent growth complementation assay in LB2003 cells; format: cell-based; conditions: for IC50: LB2003-pREP4 cells, NLM + 16 mM KCl, 10 µM IPTG, OD600 after 18 h, mean ± SEM
T2 construct: Details of the human Cx26, Cx43, and Cx46 DNAs used to transform LB2003 cells have been published; expressed in transfected cells; host or cells: E. coli LB2003 (with pREP4), IPTG-induced from pQE60
Text: The first task is accomplished through the use of defined media. We use Na^+ liquid medium (NLM) and K^+ liquid medium (KLM). NLM is a K^+-free phosphate-buffered medium (see Materials and Methods), whereas KLM is a K^+-rich medium that has the composition of NLM, except for the equimolar replacement of Na^+ with K^+. […] By mixing NLM and KLM it is easy to find a range of low [K^+]s where LB2003 cells expressing connexins grow. To optimize the signal-to-noise ratio we identified the “low” [K^+] at which the connexin-expressing cells grow to the highest absorbance measured at 600 nm (OD600), and then tested the dependence of the growth on the concentration of the expression inducer, isopropyl-β-D-thiogalactopyranoside (IPTG). This is important because the optimal signal-to-noise ratio depends on a balance between sufficient permeability to allow K^+ uptake through HCs and too many active HCs, which inhibits growth as a result of depolarization of the inner membrane and/or unbalanced shifts of ions and metabolites. In the case of Cx26, optimal growth is achieved with 4 mM K^+ and 500 μM IPTG, but for Cx43, 8 mM K^+ and 10 μM IPTG work best. From initial trials, we identified 16 mM K^+ and 10 μM IPTG as the best conditions for the Cx46 growth complementation assay.
This aminoglycoside 3'-phosphotransferase inactivates the AGs in Figure 4 by phosphorylation, allowing us to test for inhibition of connexin-dependent growth complementation without interference by the AG antibiotic effect. The absence of antibiotic effect in the LB2003-pREP4 cells was assayed at an AG concentration of 100 μM in cells grown in KLM (Figure 5). […] We then tested all AGs in Figure 4 for inhibition of connexin-dependent growth in AG-resistant LB2003 cells transformed with the pREP4 plasmid.
Briefly, pQE60 plasmids containing the connexin DNAs and plasmid pREP4 were used for transformation of E. coli LB2003 cells (generously provided by Dr. E.P. Bakker, Osnabrück University, Osnabrück, Germany). The pQE60 plasmids confer resistance to ampicillin, and pREP4 confers resistance to the AGs used in this study. LB2003 cells are missing three key K^+ transporters (Δtrk, Δkup, and Δkdp strains) and as a result cannot grow in low-[K^+] media [22, 23, 25]. Transformed LB2003 cells were stored as a 25% glycerol stock at −80 °C.
Basically, freshly prepared competent LB2003 containing the pREP4 plasmid were transformed with pQE60 (empty plasmid; negative control), pQE-Cx26 (human Cx26 DNA into pQE60), pQE-Cx43 (human Cx43 into pQE60) or pQE-Cx46 (human Cx46 into pQE60).

human Cx43 hemichannels = molecular target: T3, human Cx43 hemichannels (Homo sapiens, UniProt P17302); test: Cx43-dependent growth complementation assay in LB2003 cells; format: cell-based; conditions: for IC50: LB2003-pREP4 cells, NLM + 8 mM KCl, 10 µM IPTG, OD600 after 18 h, mean ± SEM
T3 construct: Details of the human Cx26, Cx43, and Cx46 DNAs used to transform LB2003 cells have been published; expressed in transfected cells; host or cells: E. coli LB2003 (with pREP4), IPTG-induced from pQE60
Experimental: as §1, §2

GJCs = test system: GJCs; set-up: method as in PMID 26769242, PMID 25237294; conditions: cited from earlier work
HCs = test system: HCs; set-up: method as in PMID 26769242, PMID 25237294; conditions: mammalian cells and frog oocytes; cited from earlier work
[1] = test system: Cx26, Cx43, and Cx46 hemichannels; test: Connexin-dependent growth complementation assay, all connexin groups together; format: cell-based, human; conditions: 100 μM aminoglycoside, AG-resistant LB2003 cells with pREP4
Experimental: The absence of antibiotic effect in the LB2003-pREP4 cells was assayed at an AG concentration of 100 μM in cells grown in KLM (Figure 5). […] We then tested all AGs in Figure 4 for inhibition of connexin-dependent growth in AG-resistant LB2003 cells transformed with the pREP4 plasmid.
Basically, freshly prepared competent LB2003 containing the pREP4 plasmid were transformed with pQE60 (empty plasmid; negative control), pQE-Cx26 (human Cx26 DNA into pQE60), pQE-Cx43 (human Cx43 into pQE60) or pQE-Cx46 (human Cx46 into pQE60). After growing overnight in Luria-Bertani (LB) medium (BD, Franklin Lakes, NJ, USA) supplemented with 100 mM KCl (to allow growth) and 0.4 mg/mL ampicillin, the cells were washed four times with NLM, to remove residual potassium from the LB medium, and were resuspended in complementation growth medium to an OD600 of 0.2. NLM contained 46 mM Na2HPO4, 23 mM NaH2PO4, 8 mM (NH4)2SO4, 0.4 mM MgSO4, 0.012 mM FeSO4, 1 mM sodium citrate, 44 mM glucose, and 0.006 mM thiamine hydrochloride, pH 7.0. KLM was identical to NLM except for the equimolar replacement of Na^+ with K^+. For growth-complementation by Cx26, Cx43, and Cx46 in low-[K^+] medium we used NLM + 4 mM KCl, NLM + 8 mM KCl, and NLM + 16 mM KCl, respectively. […] OD600 was measured after 18 h manually for the 24-well plates or in a plate reader for the 96-well plates (Falcon 353072, Corning Inc., Corning, NY, USA). […]

LB2003 cells = test: Antibiotic effect on growth of LB2003 cells in KLM; format: cell-based, Escherichia coli; conditions: 100 μM, cells grown in KLM
Experimental: The absence of antibiotic effect in the LB2003-pREP4 cells was assayed at an AG concentration of 100 μM in cells grown in KLM (Figure 5).
All drugs were used at a concentration of 100 μM. The cells were grown in K^+ liquid medium (KLM). […] Data were normalized to the OD600 of LB2003-pREP4 cells in the absence of drug (5.7 ± 0.1).

[2] = test system: Cx26, Cx43, and Cx46 hemichannels; set-up: method as in PMID 25585383, PMID 27789753; conditions: cited from earlier work
[3] = LB2003-pREP4 cells, NLM + 4 mM KCl, 0.5 mM IPTG, OD600 after 18 h, mean ± SEM

T3 sequence (P17302 whole entry): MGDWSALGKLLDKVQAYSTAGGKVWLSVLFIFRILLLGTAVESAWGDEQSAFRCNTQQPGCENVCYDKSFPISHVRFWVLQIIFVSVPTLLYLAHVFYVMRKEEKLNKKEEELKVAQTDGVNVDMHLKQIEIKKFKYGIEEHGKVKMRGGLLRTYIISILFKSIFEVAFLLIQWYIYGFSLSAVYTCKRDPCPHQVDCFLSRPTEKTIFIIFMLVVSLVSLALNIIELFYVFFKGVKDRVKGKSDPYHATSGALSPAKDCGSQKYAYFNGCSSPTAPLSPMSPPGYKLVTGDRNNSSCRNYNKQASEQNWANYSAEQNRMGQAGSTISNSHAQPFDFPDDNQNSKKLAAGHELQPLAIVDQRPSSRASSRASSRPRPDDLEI

- IC50 (human Cx46 hemichannels): 175 ± 9 µM
- IC50 ratio relative to Cx26 for Cx46 (human Cx46 hemichannels; isoform selectivity, Cx46 IC50 / Cx26 IC50): ~ 50
- IC50 (human Cx43 hemichannels): 24 ± 2 µM
- IC50 ratio relative to Cx26 for Cx43 (human Cx43 hemichannels; isoform selectivity, Cx43 IC50 / Cx26 IC50): ~ 7
- IC50 (human Cx26 hemichannels; [3]): 3.6 ± 0.9 µM
Compound: NC[C@H]1O[C@H](O[C@H]2[C@H](O)[C@@H](O[C@H]3O[C@H](CO)[C@@H](O)[C@H](N)[C@H]3O)[C@H](N)C[C@@H]2N)[C@H](N)[C@@H](O)[C@@H]1O [Kanamycin B, kanamycin B]

- Inhibition of Cx46-dependent growth complementation (human Cx46 hemichannels; 200 μM aminoglycoside): 37 ± 4%
- IC50 (human Cx46 hemichannels): > 200 µM
- IC50 (human Cx43 hemichannels): 201 ± 17 µM
- Reduction of Cx26-dependent growth complementation (human Cx26 hemichannels): ~ 80%
- IC50 (human Cx26 hemichannels; [3]): 42 ± 9 µM
Compound: NC[C@@H]1O[C@H](O[C@H]2[C@@H](O)[C@H](O[C@@H]3[C@@H](O)[C@H](N)C[C@H](N)[C@H]3O[C@H]3O[C@H](CO)[C@@H](O)[C@H](O)[C@H]3N)O[C@@H]2CO)[C@H](N)[C@@H](O)[C@@H]1O [Paromomycin, paromomycin]

- Effect on Cx43-dependent growth complementation (inhibition) (human Cx43 hemichannels; 100 μM aminoglycoside): −8 ± 5%
- Reduction of Cx26-dependent growth complementation (human Cx26 hemichannels): 35 ± 3%
Compound: NC[C@H]1O[C@H](O[C@H]2[C@H](O[C@@H]3O[C@H](CO)[C@@H](O)[C@H]3O)[C@@H](O)[C@H](N)C[C@@H]2N)[C@H](N)[C@@H](O)[C@@H]1O [ribostamycin]
- Inhibition of connexin-dependent growth [1]: only a marginal effect

Continued, compound first:

Compound: CN[C@@H]1[C@@H](O)[C@@H](O[C@@H]2[C@@H](O)[C@H](O[C@H]3O[C@H]([C@@H](C)O)[C@@H](O)[C@H](O)[C@H]3N)[C@@H](N)C[C@H]2N)OC[C@]1(C)O [Geneticin, geneticin]
- IC50 (human Cx26 hemichannels; IC50 of Cx26-dependent complementation (Figure 6), Figure 6A, fit of Hill's equation): 0.436 µM

Compound: CNC(C)C1CCC(N)C(OC2C(N)CC(N)C(OC3OCC(C)(O)C(NC)C3O)C2O)O1 (stereo not drawn) [gentamicin]
- Effect on GJCs (GJCs): does not affect GJCs
- Effect on HCs (HCs): inhibits HCs reversibly

Compound: kanamycin A
- Growth of AG-sensitive LB2003 cells (no pREP4) (LB2003 cells): prevented growth
- Effect on HCs in LB2003 cell growth assay [2]: inhibited HCs
